Assay results: article PMC10580319, “Quantitative Imaging of the Action of vCPP2319, an Antimicrobial Peptide from a Viral Scaffold, against Staphylococcus aureus Biofilms of a Clinical Isolate” (ACS Infectious Diseases, 2023)
Where no end group is shown, it is not given here.

What was measured:
HMEC-1 cells = assay: Cytotoxicity, CellTiter-Blue cell viability assay; format: cell-based, human; settings: 24 h incubation
Protocol: Human dermal microvascular endothelium cells (HMEC-1, ATCC CRL-3243) (ATCC, Manassas, VA, USA) were cultured as a monolayer using MCDB-131 medium (without L-glutamine) with phenol red (Gibco, Thermo-Fisher, Waltham, MA, USA). The medium was supplemented with 10% (v/v) fetal bovine serum (FBS), 1% (v/v) penicillin/streptomycin (Gibco, Thermo-Fisher), 10 ng/mL epidermal growth factor (EGF), 1 μg/mL hydrocortisone (Sigma-Aldrich, St. Louis, MO, USA), and 10 mM glutamine (ATCC), according to the manufacturer’s instructions. Cells were grown in a humidified atmosphere of 5% CO2 at 37 °C. The cytotoxicity of vCPP2319 toward HMEC-1 cells was determined using CellTiter-Blue Cell Viability Assay (Promega, USA), according to the manufacturer’s instructions. HMEC-1 cells were seeded into a sterile 96-well clear flat-bottomed polystyrene plate (Corning) at 2.5 × 10^4 cells/well and incubated for 24 h at 37 °C. After medium removal, cells were washed twice with PBS. […] The fluorescence intensity was measured with excitation and emission at 560 and 590 nm, respectively, using the infinite M200 microplate reader (Tecan). […] HMEC-1 cells metabolic activity (%) was determined using the following equation: [drawing 2] 2 where FP is the fluorescence intensity of peptide-treated cells, FNC is the fluorescence intensity of negative controls, and FPC is the fluorescence intensity of positive controls. […]

in vitro = in vitro ADME, human; settings: 37 °C
Protocol: vCPP2319 at final concentrations of 50, 100, 200, and 500 μM was incubated with 25% (v/v in H2O) human serum (Sigma-Aldrich) at 37 °C, with gentle swirling. At different time points (0, 1, 5, 10, 30, 60 120, 360, and 1440 min), 120 μL aliquots were taken and treated with 20 μL of 5% perchloric acid (v/v in H2O) for 30 min at 4 °C, to stop the proteolytic reaction. To determine the maximum peptide intensity (100% intact peptide; t0), serum proteins were first precipitated, followed by the addition of the peptide. Controls of serum without peptide and peptide not incubated in serum were also included in the assay. Samples were next centrifuged at 13 000g for 10 min to remove serum proteins. The supernatants were analyzed by reversed-phase HPLC (RP-HPLC) and LC–mass spectrometry (LC-MS). The percentage of intact peptide was calculated by RP-HPLC peak integration, expressed as percent of the amount at t0, and data were fitted to a monoexponential decay model using GraphPad Prism 7.0 to estimate the peptide half-life (t1/2). Analytical RP-HPLC was performed on a LC-20AD instrument (Shimadzu, Kyoto, Japan) equipped with a Luna C18 column (4.6 × 50 mm, 3 μm; Phenomenex, Torrance, CA, USA) using linear gradients of solvent B (0.036% (v/v) trifluoroacetic acid (TFA) in acetonitrile (ACN)) into A (0.045% (v/v) TFA in H2O) over 15 min, at a flow rate of 1 mL/min and UV detection at 220 nm. MS analysis was performed on an LC-MS 2010EV instrument (Shimadzu) fitted with an XBridge C18 column (4.6 mm × 150 mm, 3.5 μm, Waters, Cerdanyola del Valles, Spain), eluting with linear gradients of F (0.08% (v/v) formic acid [FA] in ACN) into E (0.1% (v/v) FA in H2O) over 15 min at 1 mL/min flow rate.[45]
1 - vCPP2319 stability in human serum
Figure S1 – vCPP2319 stability in human serum. Variable concentrations of the peptide were incubated with 25% (v/v in H2O) human serum for 0, 30, 60 and 120 min.
The intact peptide was separated from degradation products by HPLC using a 0 – 95% ACN gradient over 15 min. Afterwards, the percentage of intact peptide (Figure 1C) was calculated by chromatograms peak integration.
(1 picture or pasted object on this page, not shown here)

[1] = test system: S. aureus ATCC 6538 biofilms; assay: Crystal violet binding assay, biofilm biomass; format: cell-based, Staphylococcus aureus; settings: 24 h-preformed biofilms, treatment for 4 or 24 h
Protocol: (§1) The effect of vCPP2319 on 24 h-preformed S. aureus biofilms was evaluated using three distinct methods, as previously described:[24] the metabolic activity and viability of biofilm-embedded cells was determined using a resazurin reduction fluorometric assay and a colony count assay, respectively. The total biofilm biomass was quantified by using a crystal violet assay.
(§2) Crystal violet is a basic dye that binds to negatively charged molecules, such as those in biofilms EPS matrix and on bacterial membrane surface.[51]S. aureus suspensions at 1 × 10^6 CFU/mL were incubated in a 96-well microtiter clear flat-bottomed polystyrene plate (Corning) for 24 h at 37 °C. […] (EC 3.2.1.1), ranging from 0.0078 to 0.5 mg/mL, for 4 h at 37 °C. Untreated biofilms were used as a control. Biofilms were washed twice with MHB and incubated with 0.25% (v/v in sterile Milli-Q water) crystal violet (Sigma-Aldrich) for 30 min at room temperature. After each sample was washed three times with MHB, crystal violet was solubilized with 95% (v/v) ethanol (Carlo Erba Reagents S.A.S., France) by repeated pipetting. Biofilm biomass was quantified by measuring the absorbance at 590 nm of each sample in an infinite M200 microplate reader (Tecan). The percentage of crystal violet staining was determined relative to the control after blank (0.25% (v/v) crystal violet in sterile Milli-Q water) correction.

[2] = test system: S. aureus clinical isolate biofilms; assay: Crystal violet binding assay, biofilm biomass, with global mass and density ratios; format: cell-based, Staphylococcus aureus
Protocol: as §1, §2
The mean emission fluorescence intensity of WGA integrated over a plane xy at a specific depth, z, If,WGA,xy, is proportional to the mass of polysaccharides in that plane.

With WRRRYRRWRRRRRWRRRPRR-NH2 [vCPP2319] the “effect on metabolic activity of HMEC-1 cells” value (HMEC-1 cells; 50 μM, highest concentration tested) was “slight effect”, the “effect on metabolic activity of HMEC-1 cells” value (HMEC-1 cells; concentrations of up to 25 μM) was “no effect” and the half-life at 50 μM (in vitro; 50 μM peptide, 25% (v/v in H2O) human serum, RP-HPLC peak integration, monoexponential decay fit, 95% CI 139–401, read-out: half-life (t1/2) in human serum) was 3.45 h. The half-life at 100 μM (in vitro; 100 μM peptide, 25% (v/v in H2O) human serum, RP-HPLC peak integration, monoexponential decay fit, 95% CI 234–542, read-out: half-life (t1/2) in human serum) was 5.43 h, the half-life at 200 μM (in vitro; 200 μM peptide, 25% (v/v in H2O) human serum, RP-HPLC peak integration, monoexponential decay fit, 95% CI 327–490, read-out: half-life (t1/2) in human serum) was 6.53 h and the half-life at 500 μM (in vitro; 500 μM peptide, 25% (v/v in H2O) human serum, RP-HPLC peak integration, monoexponential decay fit, 95% CI 368–2107, read-out: half-life (t1/2) in human serum) was 10.4 h. For the same substance, the remaining at 1 h (in vitro; after 1 h incubation, all concentrations studied (50, 100, 200, 500 μM), 25% (v/v) human serum, RP-HPLC, read-out: intact peptide remaining) was over 60%, the “effect on biofilm biomass” value [1] was “no significant changes” and the biofilm biomass reduction ([2]; 24 h-preformed biofilms, 4 h treatment, crystal violet, relative to untreated biofilm) was “approximately 30%”. For the same substance, the “mi/mcontrol (global) eq 7” value ([2]; fold variation relative to untreated biofilm, fraction of crystal violet absorbance retained) was 0.7 and the “ρi/ρcontrol (global) eq 8” value ([2]; fold variation relative to untreated biofilm, from crystal violet data and biofilm volume, for both agents fi assumed as for α-amylase alone) was 1.2.
